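Grown in 96-well plates, cells were treated for 48 hours with each compound at five concentrations. Insufficient inhibition: endpoint recorded as highest concentration tested. GI50 is the concentration that inhibits growth by half.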 Calls of active or inactive are those of the source. Cut-off read from the data, not from the text of the source: active = GI50 up to about 1.1 µM and inactive = higher.
Experiments:
Experiment in all cases: NCI anticancer screen, dose series, 48 h
HT-29 = system: HT-29
Malme-3M = system: Malme-3M
OVCAR-4 = system: OVCAR-4
SK-MEL-2 = system: SK-MEL-2
SK-MEL-5 = system: SK-MEL-5
SF-539 = system: SF-539
OVCAR-3 = system: OVCAR-3
NCI-H522 = system: NCI-H522
UACC-257 = system: UACC-257
LOX IMVI = system: LOX IMVI
MDA-MB-435 = system: MDA-MB-435
OVCAR-8 = system: OVCAR-8
HOP-62 = system: HOP-62
SK-MEL-28 = system: SK-MEL-28
M14 = system: M14
CAKI-1 = system: CAKI-1
SK-OV-3 = system: SK-OV-3
COLO 205 = system: COLO 205
SNB-75 = system: SNB-75
TK-10 = system: TK-10
MDA-N = system: MDA-N
T47D = system: T47D
MOLT-4 = system: MOLT-4
HCT-15 = system: HCT-15
PC-3 = system: PC-3
OVCAR-5 = system: OVCAR-5
U-251 = system: U-251
CCRF-CEM = system: CCRF-CEM
HL-60 = system: HL-60
HCC 2998 = system: HCC 2998
A549 = system: A549
BT-549 = system: BT-549
MCF7 = system: MCF7
HOP-92 = system: HOP-92
SN12C = system: SN12C
ACHN = system: ACHN
HCT-116 = system: HCT-116
UACC-62 = system: UACC-62
MDA-MB-231 = system: MDA-MB-231
EKVX = system: EKVX
A498 = system: A498
UO-31 = system: UO-31
NCI-H23 = system: NCI-H23
NCI-H226 = system: NCI-H226
IGROV-1 = system: IGROV-1
SW-620 = system: SW-620
RPMI-8226 = system: RPMI-8226
K562 = system: K562
786-0 = system: 786-0
SR = system: SR
KM12 = system: KM12
NCI/ADR-RES = system: NCI/ADR-RES
SF-295 = system: SF-295
SNB-19 = system: SNB-19
NCI-H460 = system: NCI-H460
DU-145 = system: DU-145
SF-268 = system: SF-268
RXF 393 = system: RXF 393

c1ccc(CNc2nncc3[nH]cnc23)cc1
GI50 (HT-29): > 100 µM (inactive)
GI50 (Malme-3M): 59.6 µM (inactive)
GI50 (OVCAR-4): > 100 µM (inactive)
GI50 (SK-MEL-2): > 100 µM (inactive)
GI50 (SK-MEL-5): > 100 µM (inactive)
GI50 (SF-539): > 100 µM (inactive)
GI50 (OVCAR-3): > 100 µM (inactive)
GI50 (NCI-H522): > 100 µM (inactive)
GI50 (UACC-257): > 100 µM (inactive)
GI50 (LOX IMVI): 88.9 µM (inactive)
GI50 (MDA-MB-435): > 100 µM (inactive)
GI50 (OVCAR-8): > 100 µM (inactive)
GI50 (HOP-62): > 100 µM (inactive)
GI50 (SK-MEL-28): > 100 µM (inactive)
GI50 (M14): > 100 µM (inactive)
GI50 (CAKI-1): > 100 µM (inactive)
GI50 (SK-OV-3): > 100 µM (inactive)
GI50 (COLO 205): > 100 µM (inactive)
GI50 (SNB-75): > 100 µM (inactive)
GI50 (TK-10): > 100 µM (inactive)
GI50 (MDA-N): > 100 µM (inactive)
GI50 (T47D): > 100 µM (inactive)
GI50 (MOLT-4): > 100 µM (inactive)
GI50 (HCT-15): > 100 µM
GI50 (PC-3): > 100 µM (inactive)
GI50 (OVCAR-5): > 100 µM (inactive)
GI50 (U-251): > 100 µM (inactive)
GI50 (CCRF-CEM): > 100 µM (inactive)
GI50 (HL-60): > 100 µM (inactive)
GI50 (HCC 2998): > 100 µM (inactive)
GI50 (A549): > 100 µM (inactive)
GI50 (BT-549): > 100 µM (inactive)
GI50 (MCF7): > 100 µM (inactive)
GI50 (HOP-92): 69.8 µM (inactive)
GI50 (SN12C): > 100 µM (inactive)
GI50 (ACHN): > 100 µM (inactive)
GI50 (HCT-116): > 100 µM (inactive)
GI50 (UACC-62): > 100 µM (inactive)
GI50 (MDA-MB-231): > 100 µM (inactive)
GI50 (EKVX): > 100 µM (inactive)
GI50 (A498): > 100 µM (inactive)
GI50 (UO-31): > 100 µM (inactive)
GI50 (NCI-H23): > 100 µM (inactive)
GI50 (NCI-H226): > 100 µM (inactive)
GI50 (IGROV-1): > 100 µM (inactive)
GI50 (SW-620): > 100 µM (inactive)
GI50 (RPMI-8226): > 100 µM (inactive)
GI50 (K562): > 100 µM (inactive)
GI50 (786-0): > 100 µM (inactive)
GI50 (SR): > 100 µM (inactive)
GI50 (KM12): > 100 µM (inactive)
GI50 (NCI/ADR-RES): > 100 µM (inactive)
GI50 (SF-295): > 100 µM (inactive)

OCCSCCCSCCO
GI50 (HT-29): > 100 µM (inactive)
GI50 (OVCAR-4): > 100 µM (inactive)
GI50 (SNB-19): > 100 µM (inactive)
GI50 (SK-MEL-5): > 100 µM (inactive)
GI50 (SF-539): > 100 µM (inactive)
GI50 (OVCAR-3): > 100 µM (inactive)
GI50 (NCI-H522): > 100 µM (inactive)
GI50 (UACC-257): > 100 µM (inactive)
GI50 (LOX IMVI): > 100 µM (inactive)
GI50 (MDA-MB-435): > 10 µM (inactive)
GI50 (OVCAR-8): > 100 µM (inactive)
GI50 (HOP-62): > 100 µM (inactive)
GI50 (SK-MEL-28): > 100 µM (inactive)
GI50 (M14): > 100 µM (inactive)
GI50 (NCI-H460): 34.8 µM (inactive)
GI50 (SK-OV-3): > 100 µM (inactive)
GI50 (COLO 205): > 100 µM (inactive)
GI50 (SNB-75): > 100 µM (inactive)
GI50 (TK-10): > 100 µM (inactive)
GI50 (MDA-N): > 100 µM (inactive)
GI50 (T47D): > 100 µM (inactive)
GI50 (MOLT-4): 32.1 µM (inactive)
GI50 (HCT-15): > 100 µM
GI50 (PC-3): > 100 µM (inactive)
GI50 (OVCAR-5): > 100 µM (inactive)
GI50 (U-251): > 100 µM (inactive)
GI50 (CCRF-CEM): 36.8 µM (inactive)
GI50 (HL-60): 30.7 µM (inactive)
GI50 (HCC 2998): > 100 µM (inactive)
GI50 (A549): > 100 µM (inactive)
GI50 (BT-549): > 100 µM (inactive)
GI50 (MCF7): > 100 µM (inactive)
GI50 (DU-145): > 100 µM (inactive)
GI50 (HOP-92): 27.1 µM (inactive)
GI50 (SN12C): > 100 µM (inactive)
GI50 (HCT-116): > 100 µM (inactive)
GI50 (UACC-62): > 100 µM (inactive)
GI50 (MDA-MB-231): > 100 µM (inactive)
GI50 (EKVX): > 100 µM (inactive)
GI50 (UO-31): > 100 µM (inactive)
GI50 (NCI-H23): > 100 µM (inactive)
GI50 (IGROV-1): > 100 µM (inactive)
GI50 (SW-620): > 100 µM (inactive)
GI50 (K562): > 100 µM (inactive)
GI50 (786-0): > 100 µM (inactive)
GI50 (SF-268): > 100 µM (inactive)
GI50 (SR): 39.9 µM (inactive)
GI50 (KM12): > 100 µM (inactive)
GI50 (NCI/ADR-RES): > 100 µM (inactive)
GI50 (SF-295): > 100 µM (inactive)

O=C(Nc1cc2c(=O)[nH]c3ccccc3c2oc1=O)c1cnccn1
GI50 (HT-29): > 100 µM (inactive)
GI50 (Malme-3M): > 100 µM (inactive)
GI50 (OVCAR-4): > 100 µM (inactive)
GI50 (SK-MEL-2): > 100 µM (inactive)
GI50 (SNB-19): > 100 µM (inactive)
GI50 (SK-MEL-5): > 100 µM (inactive)
GI50 (SF-539): > 100 µM (inactive)
GI50 (OVCAR-3): > 100 µM (inactive)
GI50 (NCI-H522): > 100 µM (inactive)
GI50 (UACC-257): > 100 µM (inactive)
GI50 (LOX IMVI): > 100 µM (inactive)
GI50 (MDA-MB-435): > 100 µM (inactive)
GI50 (OVCAR-8): > 100 µM (inactive)
GI50 (SK-MEL-28): > 100 µM (inactive)
GI50 (M14): > 100 µM (inactive)
GI50 (CAKI-1): > 100 µM (inactive)
GI50 (NCI-H460): > 100 µM (inactive)
GI50 (SK-OV-3): > 100 µM (inactive)
GI50 (COLO 205): > 100 µM (inactive)
GI50 (SNB-75): > 100 µM (inactive)
GI50 (TK-10): > 100 µM (inactive)
GI50 (MDA-N): > 100 µM (inactive)
GI50 (T47D): > 100 µM (inactive)
GI50 (MOLT-4): > 100 µM (inactive)
GI50 (HCT-15): > 100 µM
GI50 (PC-3): > 100 µM (inactive)
GI50 (OVCAR-5): > 100 µM (inactive)
GI50 (U-251): > 100 µM (inactive)
GI50 (CCRF-CEM): > 100 µM (inactive)
GI50 (HCC 2998): > 100 µM (inactive)
GI50 (A549): > 100 µM (inactive)
GI50 (BT-549): > 100 µM (inactive)
GI50 (MCF7): > 100 µM (inactive)
GI50 (RXF 393): > 100 µM (inactive)
GI50 (DU-145): > 100 µM (inactive)
GI50 (HOP-92): > 100 µM (inactive)
GI50 (SN12C): > 100 µM (inactive)
GI50 (ACHN): > 100 µM (inactive)
GI50 (HCT-116): > 100 µM (inactive)
GI50 (UACC-62): > 100 µM (inactive)
GI50 (MDA-MB-231): > 100 µM (inactive)
GI50 (EKVX): > 100 µM (inactive)
GI50 (UO-31): 80.9 µM (inactive)
GI50 (NCI-H23): > 100 µM (inactive)
GI50 (NCI-H226): > 100 µM (inactive)
GI50 (IGROV-1): > 100 µM (inactive)
GI50 (SW-620): > 100 µM (inactive)
GI50 (K562): > 100 µM (inactive)
GI50 (786-0): > 100 µM (inactive)
GI50 (SR): > 100 µM (inactive)
GI50 (KM12): > 100 µM (inactive)
GI50 (NCI/ADR-RES): > 100 µM (inactive)
GI50 (SF-295): > 100 µM (inactive)
